# Test system: σ1R
# Assay: NHP PET/MR imaging with kinetic modelling, baseline and self-blocking
# Assay type: in vivo
# Conditions: for VT, Logan graphical method [T* = 40 min] / VT, Two tissue compartment model [2TCM] / VT, One tissue compartment model [1TCM]: male NHP brain
# Excerpt: Next, we conducted PET/MR imaging studies using [^11C]CNY‐01 in non‐human primates (NHP) to evaluate its safety and translational potential in large animals further. A 90‐minute dynamic PET scan with [^11C]CNY‐01 focusing on the head of a male rhesus monkey. We performed a full kinetic analysis with one‐ and two‐tissue compartment models (1TCM and 2TCM), as well as logan graphical analysis (LGA), using metabolite‐corrected arterial input function (AIF), similar to previous studies,^[ [44], [45] ^] to determine which model best suit kinetics of [^11C]CNY‐01. In most brain regions, 2TCM provided a better fit than 1TCM, as indicated by the Akaike information criterion (AIC) and model selection criterion (MSC) (Table 1). […] To test whether non‐parametric graphical approaches can be used for [^11C]CNY‐01, we performed LGA with an assumption of steady‐state time (T*) of 40 mins (Table 1). […] For voxel‐wise estimation of VT across the whole brain, we then used LGA (Figure 4A).
# We also performed a self‐blocking scan for [^11C]CNY‐01, administering 0.5 mg kg^−1 of unlabeled CNY‐01 10 min before the radiotracer. The metabolism of the radiotracer in the blocking scan was similar to that of the baseline (Figure S6, Supporting Information). The radioactivity concentration was lower in arterial blood samples in the blocking scan compared to the baseline, while brain uptake was higher in the blocking scan (Figure S6, Supporting Information). […] The variation of the radiotracer plasma protein binding (fp) between baseline and blocking scan may explain our observation in a way similar to that of the previous study.^[ [46] ^] Nonetheless, due to this study's lack of fp data, the exact explanation for our observation remains to be determined further.
# The PET/MR imaging protocol in non‐human primates (NHP) followed our previous work.^[ [55], [56] ^] A male rhesus macaque (8.55 kg) was anesthetized with an intramuscular injection of xylazine (0.5–2.0 mg kg^−1) and ketamine (10 mg kg^−1), followed by endotracheal intubation. V‐ and A‐lines were inserted, and anesthesia was maintained using isoflurane. [^11C] CNY‐01 was administered after antecubital catheterization, with an arterial line prepared for radiometabolite analysis. In the self‐blocking scan, the same animal (6.80 kg) was scanned with a 10‐min pre‐treatment of 0.5 mg kg^−1 unlabeled CNY‐01. PET/MR imaging data were acquired using a Siemens TIM‐Trio scanner (3T) equipped with a Siemens BrainPET insert module and an in‐house‐built 8‐channel head coil. The dynamic scan began, followed by administration of [^11C] CNY‐01 (5.1 mCi). The list mode data were reconstructed using the 3D ordinary Poisson expectation‐maximization algorithm (16 subsets and 6 iterations) with detector efficiency, decay, dead time, random coincidences, scatter, and attenuation corrections with gradually increasing time frams. All images were reconstructed into 153 slices with 256 × 256 pixels and 1.25‐mm isotropic voxel size. High‐resolution structural MRI scans were acquired by using a multi‐echo magnetization‐prepared rapid gradient echo (ME‐MPRAGE) sequence with parameters as follows: TR = 2400 ms; TE1/TE2/TE3/TE4 = 1.57/3.29/5.01/6.73 ms; inversion time = 1200 ms; flip angle = 9°; spatial resolution = 1 mm isotropic.
# For macaque brain PET/MR imaging analysis, we applied the INIA19 Template^[ [57] ^] and NeuroMaps Atlas in accordance with our prior work.^[ [58] ^] In brief, reconstructed PET images were registered to the INIA19 Primate Brain Atlas^[ [57] ^] with the following processing steps^[ [59] ^]: The high‐resolution T1‐weighted MR image, co‐registered with the PET image, was first affine‐registered to the INIA19 atlas. By using the same transformation, dynamic PET data was registered to the atlas. A spatial smoothing with a 6‐mm FWHM Gaussian kernel was applied to PET images. Twenty ROIs determined in the INIA19 atlas were used to derive regional TACs. […]
# [1] = ACC, 10-min pretreatment of unlabeled CNY-01 (0.5 mg kg^−1)
# [2] = Amygdala, 10-min pretreatment of unlabeled CNY-01 (0.5 mg kg^−1)
# [3] = CBL, 10-min pretreatment of unlabeled CNY-01 (0.5 mg kg^−1)
# [4] = Caudate, 10-min pretreatment of unlabeled CNY-01 (0.5 mg kg^−1)
# [5] = Globus-pallidus, 10-min pretreatment of unlabeled CNY-01 (0.5 mg kg^−1)
# [6] = Hippocampus, 10-min pretreatment of unlabeled CNY-01 (0.5 mg kg^−1)
# [7] = Hypothalamus, 10-min pretreatment of unlabeled CNY-01 (0.5 mg kg^−1)
# [8] = Ifc, 10-min pretreatment of unlabeled CNY-01 (0.5 mg kg^−1)
# [9] = Insula, 10-min pretreatment of unlabeled CNY-01 (0.5 mg kg^−1)
# [10] = Midbrain, 10-min pretreatment of unlabeled CNY-01 (0.5 mg kg^−1)
# [11] = Motor, 10-min pretreatment of unlabeled CNY-01 (0.5 mg kg^−1)
structure (smiles),measurement,setting,value
Cc1nc(-c2ccc(O[11CH3])cc2)nc(OCCCN2CCCCC2)c1Cl [[^11C]CNY-01],VT in blocking scan compared to baseline,"0.5 mg kg^−1 unlabeled CNY-01 10 min before the radiotracer, NHP",higher VT across the brain
same,"VT, Logan graphical method [T* = 40 min]",[1],29.37 ml/cm^3
same,"VT, Two tissue compartment model [2TCM]",[1],25.84 ml/cm^3
same,"VT, Logan graphical method [T* = 40 min]","ACC, baseline",13.32 mL cm^−3
same,"VT, One tissue compartment model [1TCM]","ACC, baseline",9.76 mL cm^−3
same,"VT, Two tissue compartment model [2TCM]","ACC, baseline",15.87 mL cm^−3
same,"VT, Logan graphical method [T* = 40 min]",[2],34.47 ml/cm^3
same,"VT, Two tissue compartment model [2TCM]",[2],29.18 ml/cm^3
same,"VT, Logan graphical method [T* = 40 min]","Amygdala, baseline",14.75 mL cm^−3
same,"VT, One tissue compartment model [1TCM]","Amygdala, baseline",10.83 mL cm^−3
same,"VT, Two tissue compartment model [2TCM]","Amygdala, baseline",13.78 mL cm^−3
same,"VT, Logan graphical method [T* = 40 min]",[3],21.96 ml/cm^3
same,"VT, Two tissue compartment model [2TCM]",[3],18.25 ml/cm^3
same,"VT, Logan graphical method [T* = 40 min]","CBL, baseline",11.65 mL cm^−3
same,"VT, One tissue compartment model [1TCM]","CBL, baseline",8.96 mL cm^−3
same,"VT, Two tissue compartment model [2TCM]","CBL, baseline",11.68 mL cm^−3
same,"VT, Logan graphical method [T* = 40 min]",[4],28.10 ml/cm^3
same,"VT, Two tissue compartment model [2TCM]",[4],24.46 ml/cm^3
same,"VT, Logan graphical method [T* = 40 min]","Caudate, baseline",12.71 mL cm^−3
same,"VT, One tissue compartment model [1TCM]","Caudate, baseline",9.58 mL cm^−3
same,"VT, Two tissue compartment model [2TCM]","Caudate, baseline",14.24 mL cm^−3
same,"VT, Logan graphical method [T* = 40 min]",[5],33.31 ml/cm^3
same,"VT, Two tissue compartment model [2TCM]",[5],26.67 ml/cm^3
same,"VT, Logan graphical method [T* = 40 min]","Globus-pallidus, baseline",15.11 mL cm^−3
same,"VT, One tissue compartment model [1TCM]","Globus-pallidus, baseline",11.32 mL cm^−3
same,"VT, Two tissue compartment model [2TCM]","Globus-pallidus, baseline",14.90 mL cm^−3
same,"VT, Logan graphical method [T* = 40 min]",[6],24.15 ml/cm^3
same,"VT, Two tissue compartment model [2TCM]",[6],18.46 ml/cm^3
same,"VT, Logan graphical method [T* = 40 min]","Hippocampus, baseline",10.31 mL cm^−3
same,"VT, One tissue compartment model [1TCM]","Hippocampus, baseline",8.04 mL cm^−3
same,"VT, Two tissue compartment model [2TCM]","Hippocampus, baseline",10.36 mL cm^−3
same,"VT, Logan graphical method [T* = 40 min]",[7],24.54 ml/cm^3
same,"VT, Two tissue compartment model [2TCM]",[7],18.97 ml/cm^3
same,"VT, Logan graphical method [T* = 40 min]","Hypothalamus, baseline",11.42 mL cm^−3
same,"VT, One tissue compartment model [1TCM]","Hypothalamus, baseline",8.36 mL cm^−3
same,"VT, Two tissue compartment model [2TCM]","Hypothalamus, baseline",10.60 mL cm^−3
same,"VT, Logan graphical method [T* = 40 min]",[8],20.73 ml/cm^3
same,"VT, Two tissue compartment model [2TCM]",[8],18.09 ml/cm^3
same,"VT, Logan graphical method [T* = 40 min]","Ifc, baseline",9.62 mL cm^−3
same,"VT, One tissue compartment model [1TCM]","Ifc, baseline",7.36 mL cm^−3
same,"VT, Two tissue compartment model [2TCM]","Ifc, baseline",10.89 mL cm^−3
same,"VT, Logan graphical method [T* = 40 min]",[9],31.86 ml/cm^3
same,"VT, Two tissue compartment model [2TCM]",[9],26.77 ml/cm^3
same,"VT, Logan graphical method [T* = 40 min]","Insula, baseline",14.70 mL cm^−3
same,"VT, One tissue compartment model [1TCM]","Insula, baseline",11.17 mL cm^−3
same,"VT, Two tissue compartment model [2TCM]","Insula, baseline",13.96 mL cm^−3
same,"VT, Logan graphical method [T* = 40 min]",[10],34.11 ml/cm^3
same,"VT, Two tissue compartment model [2TCM]",[10],25.70 ml/cm^3
same,"VT, Logan graphical method [T* = 40 min]","Midbrain, baseline",13.39 mL cm^−3
same,"VT, One tissue compartment model [1TCM]","Midbrain, baseline",11.03 mL cm^−3
same,"VT, Two tissue compartment model [2TCM]","Midbrain, baseline",14.71 mL cm^−3
same,"VT, Logan graphical method [T* = 40 min]",[11],21.53 ml/cm^3
same,"VT, Two tissue compartment model [2TCM]",[11],16.66 ml/cm^3
same,"VT, Logan graphical method [T* = 40 min]","Motor, baseline",9.39 mL cm^−3
